Measurements from paper PMC9232501, “Results of the phase I CCTG IND.231 trial of CX-5461 in patients with advanced solid tumors enriched for DNA-repair deficiencies” (Nature Communications, 2022).
“And” between values parts separate entries of the source, which are not always exact repeats. Equal values may be shown once.

System: HCT116 cells
Assay: HCT116 cytotoxicity (WST-1 assay) with and without UVA radiation
Assay type: cell-based, Human
Details: for potentiation of UVA-induced cytotoxicity: UV 5 mJ/cm^2 and 125 mJ/cm^2; for WST-1 raw signal (Figure 5d) / WST-1 raw signal (Figure 5b) / WST-1 raw signal (Figure 5e): replicates
Experimental: Fig. 5 Comparison of G4 ligand photosensitization. […] Vertical axis, fractional survival, horizontal axis log10 drug concentration (M) (f) Representative images of CPD immunofluorescent staining under UV and drug treatment conditions for U2OS cells, quantified from biological duplicates in (g) (h) Scale bar = 100um. U2OS cells were treated with drug or vehicle control, then immediately irradiated with UVA 125 mJ/cm^2; and fixed 1 h later for immunofluorescence staining with CPD antibody. g Distribution of mean intensity of CPD level per cell (total n = in labels), with two biological repeats per condition. Vertical axis, mean CPD intensity per cell, horizontal axis, conditions (h) WT or KO XPA HAP1 cells assayed for cytotoxicity. Vertical axis, fractional survival (WST-1 assay). The horizontal axis, log10 drug concentration (M). Error bars = standard deviation of the mean. Three biological repeats per condition.
Human epidermal keratinocytes (HEKa) cells were sourced from Thermo Fisher Scientific, and were grown in EpiLife™ Medium with HKGS. HAP WT and XPA knockout cell lines (Horizon Discovery) were cultured in IMDM, 10% FCS. Human HCT116 cells, U2OS cells (ATCC) were grown in McCoy’s 5 A medium with 10% FBS and L-glutamine. All cell lines are mycoplasma free and have been authenticated by STR or SNP profiling. CX-5461 was provided by Senhwa Biosciences, Inc. PDS is from Sigma-Aldrich, BRACO-19 from Alfa Chemistry, PhENDC3 is from Sigma-Aldrich, γ -H2AX antibody from Abcam (1:1000 for IF) and CPD antibody (1:1500) from Cosmo Bio Ltd. (Catalog number: CAC-NM-DAD-001). The WST-1 assay was performed as previously described, γ H2AX foci staining was performed as previously described. Immunofluorescence staining of CPD was performed according to the protocol from the manufacturer (Cosmo Bio Ltd).

Compound: CN(C)c1ccc(Nc2c3ccc(NC(=O)CCN4CCCC4)cc3nc3cc(NC(=O)CCN4CCCC4)ccc23)cc1 [BRACO-19]
- potentiation of UVA-induced cytotoxicity: not
- WST-1 raw signal (Figure 5d) (conc 1.31e-6, 5mJ/cm2 UV): 2.4666 and 1.6857
- WST-1 raw signal (Figure 5d) (conc 1.31e-6, 125mJ/cm2 UV): 1.7146 and 2.5235
- WST-1 raw signal (Figure 5d) (conc 1.31e-6, no UV): 1.0028 and 1.1127 and 1.1944
- WST-1 raw signal (Figure 5d) (conc 2.63e-6, 5mJ/cm2 UV): 1.5923 and 2.1232
- WST-1 raw signal (Figure 5d) (conc 2.63e-6, 125mJ/cm2 UV): 1.7241 and 1.9009
- WST-1 raw signal (Figure 5d) (conc 2.63e-6, no UV): 1.0332 and 1.1578 and 1.2506
- WST-1 raw signal (Figure 5d) (conc 5.25e-6, 5mJ/cm2 UV): 2.5376 and 1.7122
- WST-1 raw signal (Figure 5d) (conc 5.25e-6, 125mJ/cm2 UV): 1.8158 and 1.6795
- WST-1 raw signal (Figure 5d) (conc 5.25e-6, no UV): 0.8877 and 1.1208 and 1.1731
- WST-1 raw signal (Figure 5d) (conc 1.05e-5, 5mJ/cm2 UV): 2.0499 and 1.7849
- WST-1 raw signal (Figure 5d) (conc 1.05e-5, 125mJ/cm2 UV): 1.734 and 1.5629
- WST-1 raw signal (Figure 5d) (conc 1.05e-5, no UV): 0.9118 and 1.1353 and 1.1139
- WST-1 raw signal (Figure 5d) (conc 2.1e-5, 5mJ/cm2 UV): 2.2151 and 1.3748
- WST-1 raw signal (Figure 5d) (conc 2.1e-5, 125mJ/cm2 UV): 1.3993 and 1.3857
- WST-1 raw signal (Figure 5d) (conc 2.1e-5, no UV): 0.9051 and 1.0979 and 1.0693
- WST-1 raw signal (Figure 5d) (conc 4.2e-5, 5mJ/cm2 UV): 1.7663 and 1.2587
- WST-1 raw signal (Figure 5d) (conc 4.2e-5, 125mJ/cm2 UV): 1.2502 and 1.0049
- WST-1 raw signal (Figure 5d) (conc 4.2e-5, no UV): 0.8968 and 1.0934 and 1.1351
- WST-1 raw signal (Figure 5d) (conc 8.4e-5, 5mJ/cm2 UV): 0.4969 and 0.3888
- WST-1 raw signal (Figure 5d) (conc 8.4e-5, 125mJ/cm2 UV): 0.4246 and 0.5991
- WST-1 raw signal (Figure 5d) (conc 8.4e-5, no UV): 0.3873 and 0.5407 and 0.5015
- WST-1 raw signal (Figure 5d) (conc 1.64E-07, 5mJ/cm2 UV): 2.3685 and 1.9812
- WST-1 raw signal (Figure 5d) (conc 1.64E-07, 125mJ/cm2 UV): 1.617 and 1.4273
- WST-1 raw signal (Figure 5d) (conc 1.64E-07, no UV): 1.0063 and 1.0872 and 1.153
- WST-1 raw signal (Figure 5d) (conc 3.28E-07, 5mJ/cm2 UV): 1.3974 and 1.689
- WST-1 raw signal (Figure 5d) (conc 3.28E-07, 125mJ/cm2 UV): 1.2981 and 1.6967
- WST-1 raw signal (Figure 5d) (conc 3.28E-07, no UV): 0.8955 and 1.1379 and 1.1636
- WST-1 raw signal (Figure 5d) (conc 6.56E-07, 5mJ/cm2 UV): 2.2078 and 2.2342
- WST-1 raw signal (Figure 5d) (conc 6.56E-07, 125mJ/cm2 UV): 1.8184 and 2.0816
- WST-1 raw signal (Figure 5d) (conc 6.56E-07, no UV): 1.0072 and 1.1785 and 1.064

Compound: CN1CCC[C@H]1CCNC(=O)c1cn2c3c(c(N4CCC(c5cnccn5)C4)c(F)cc3c1=O)Oc1cc3ccccc3cc1-2 (stereo partly shown) [CX-3543, quarfloxin]
- potentiation of UVA-induced cytotoxicity: Strong potentiation
- WST-1 raw signal (Figure 5b) (conc 1.00E-07, 5mJ/cm2 UV): 0.1176 and 0.1409 and 0.1492
- WST-1 raw signal (Figure 5b) (conc 1.00E-07, 125mJ/cm2 UV): 0.1326 and 0.1388 and 0.1325
- WST-1 raw signal (Figure 5b) (conc 1.00E-07, no UV): 0.3065 and 0.2985 and 0.3333
- WST-1 raw signal (Figure 5b) (conc 1.25E-08, 5mJ/cm2 UV): 0.2437 and 0.3248 and 0.2269
- WST-1 raw signal (Figure 5b) (conc 1.25E-08, 125mJ/cm2 UV): 0.1256 and 0.1309 and 0.1293
- WST-1 raw signal (Figure 5b) (conc 1.25E-08, no UV): 0.9466 and 1.0534 and 1.1298
- WST-1 raw signal (Figure 5b) (conc 1.56E-09, 5mJ/cm2 UV): 0.8994 and 0.9603 and 1.0971
- WST-1 raw signal (Figure 5b) (conc 1.56E-09, 125mJ/cm2 UV): 0.4201 and 0.4656 and 0.3751
- WST-1 raw signal (Figure 5b) (conc 1.56E-09, no UV): 1.1359 and 1.1204 and 1.1484
- WST-1 raw signal (Figure 5b) (conc 2.00E-07, 5mJ/cm2 UV): 0.1365 and 0.1282 and 0.1322
- WST-1 raw signal (Figure 5b) (conc 2.00E-07, 125mJ/cm2 UV): 0.1395 and 0.1322 and 0.1311
- WST-1 raw signal (Figure 5b) (conc 2.00E-07, no UV): 0.2081 and 0.2189 and 0.1938
- WST-1 raw signal (Figure 5b) (conc 2.50E-08, 5mJ/cm2 UV): 0.2095 and 0.1617 and 0.1535
- WST-1 raw signal (Figure 5b) (conc 2.50E-08, 125mJ/cm2 UV): 0.1433 and 0.1378 and 0.1358
- WST-1 raw signal (Figure 5b) (conc 2.50E-08, no UV): 0.8495 and 0.8987 and 0.779
- WST-1 raw signal (Figure 5b) (conc 3.13E-09, 5mJ/cm2 UV): 0.6485 and 0.7419 and 0.9883
- WST-1 raw signal (Figure 5b) (conc 3.13E-09, 125mJ/cm2 UV): 0.2369 and 0.2535 and 0.2676
- WST-1 raw signal (Figure 5b) (conc 3.13E-09, no UV): 1.0174 and 1.1372 and 1.1113
- WST-1 raw signal (Figure 5b) (conc 3.91E-10, 5mJ/cm2 UV): 1.0118 and 0.9721 and 1.5038
- WST-1 raw signal (Figure 5b) (conc 3.91E-10, 125mJ/cm2 UV): 0.8661 and 1.1363 and 0.97
- WST-1 raw signal (Figure 5b) (conc 3.91E-10, no UV): 1.0197 and 1.049 and 1.1065
- WST-1 raw signal (Figure 5b) (conc 5.00E-08, 5mJ/cm2 UV): 0.1533 and 0.1449 and 0.1376
- WST-1 raw signal (Figure 5b) (conc 5.00E-08, 125mJ/cm2 UV): 0.1545 and 0.1405 and 0.1347
- WST-1 raw signal (Figure 5b) (conc 5.00E-08, no UV): 0.5561 and 0.5613 and 0.5776
- WST-1 raw signal (Figure 5b) (conc 6.25E-09, 5mJ/cm2 UV): 0.5204 and 0.5393 and 0.4087
- WST-1 raw signal (Figure 5b) (conc 6.25E-09, 125mJ/cm2 UV): 0.1582 and 0.1598 and 0.1609
- WST-1 raw signal (Figure 5b) (conc 6.25E-09, no UV): 1.0374 and 1.1818 and 1.0522
- WST-1 raw signal (Figure 5b) (conc 7.81E-10, 5mJ/cm2 UV): 0.7587 and 1.1105 and 1.4362
- WST-1 raw signal (Figure 5b) (conc 7.81E-10, 125mJ/cm2 UV): 0.5029 and 0.7057 and 0.876
- WST-1 raw signal (Figure 5b) (conc 7.81E-10, no UV): 1.0762 and 1.1392 and 1.1311

Compound: C[n+]1cc(NC(=O)c2ccc3ccc4ccc(C(=O)Nc5cc6ccccc6[n+](C)c5)nc4c3n2)cc2ccccc21 [PhenDC3]
- potentiation of UVA-induced cytotoxicity: not
- WST-1 raw signal (Figure 5e) (conc 1.47e-6, 5mJ/cm2 UV): 2.5247 and 1.9665 and 1.5331
- WST-1 raw signal (Figure 5e) (conc 1.47e-6, 125mJ/cm2 UV): 2.2675 and 1.9844 and 1.1454
- WST-1 raw signal (Figure 5e) (conc 1.47e-6, no UV): 1.3654 and 1.4935 and 1.7286
- WST-1 raw signal (Figure 5e) (conc 2.94e-6, 5mJ/cm2 UV): 2.08 and 2.2029 and 1.6368
- WST-1 raw signal (Figure 5e) (conc 2.94e-6, 125mJ/cm2 UV): 2.4823 and 2.523 and 1.7852
- WST-1 raw signal (Figure 5e) (conc 2.94e-6, no UV): 1.5405 and 2.117 and 2.002
- WST-1 raw signal (Figure 5e) (conc 5.88e-6, 5mJ/cm2 UV): 2.4037 and 2.2391 and 1.6885
- WST-1 raw signal (Figure 5e) (conc 5.88e-6, 125mJ/cm2 UV): 2.7023 and 2.4336 and 1.5283
- WST-1 raw signal (Figure 5e) (conc 5.88e-6, no UV): 1.7 and 1.9567 and 2.1724
- WST-1 raw signal (Figure 5e) (conc 1.18e-5, 5mJ/cm2 UV): 2.1812 and 1.9738 and 1.7421
- WST-1 raw signal (Figure 5e) (conc 1.18e-5, 125mJ/cm2 UV): 2.7227 and 2.5018 and 2.3037
- WST-1 raw signal (Figure 5e) (conc 1.18e-5, no UV): 1.7648 and 1.8678 and 1.9824
- WST-1 raw signal (Figure 5e) (conc 2.35e-5, 5mJ/cm2 UV): 0.565 and 0.559 and 0.471
- WST-1 raw signal (Figure 5e) (conc 2.35e-5, 125mJ/cm2 UV): 0.7287 and 0.5914 and 0.574
- WST-1 raw signal (Figure 5e) (conc 2.35e-5, no UV): 0.8347 and 0.741 and 0.6679
- WST-1 raw signal (Figure 5e) (conc 4.7e-5, 5mJ/cm2 UV): 0.2348 and 0.2033 and 0.2076
- WST-1 raw signal (Figure 5e) (conc 4.7e-5, 125mJ/cm2 UV): 0.1706 and 0.1911 and 0.2089
- WST-1 raw signal (Figure 5e) (conc 4.7e-5, no UV): 0.2669 and 0.2647 and 0.2402
- WST-1 raw signal (Figure 5e) (conc 9.4e-5, 5mJ/cm2 UV): 0.1394 and 0.1367 and 0.1266
- WST-1 raw signal (Figure 5e) (conc 9.4e-5, 125mJ/cm2 UV): 0.1442 and 0.1281 and 0.1307
- WST-1 raw signal (Figure 5e) (conc 9.4e-5, no UV): 0.1612 and 0.1272 and 0.1365
- WST-1 raw signal (Figure 5e) (conc 1.84E-07, 5mJ/cm2 UV): 1.7037 and 1.2125 and 1.5201
- WST-1 raw signal (Figure 5e) (conc 1.84E-07, 125mJ/cm2 UV): 1.8011 and 1.8559 and 1.4258
- WST-1 raw signal (Figure 5e) (conc 1.84E-07, no UV): 1.321 and 1.2585 and 1.2601
- WST-1 raw signal (Figure 5e) (conc 3.67E-07, 5mJ/cm2 UV): 1.8869 and 1.5993 and 1.6043
- WST-1 raw signal (Figure 5e) (conc 3.67E-07, 125mJ/cm2 UV): 2.4917 and 1.8093 and 1.3054
- WST-1 raw signal (Figure 5e) (conc 3.67E-07, no UV): 1.2806 and 1.3851 and 1.3161
- WST-1 raw signal (Figure 5e) (conc 7.34E-07, 5mJ/cm2 UV): 1.9796 and 1.8361 and 1.8217
- WST-1 raw signal (Figure 5e) (conc 7.34E-07, 125mJ/cm2 UV): 2.3975 and 1.9653 and 1.3571
- WST-1 raw signal (Figure 5e) (conc 7.34E-07, no UV): 1.5573 and 1.2554 and 1.5011

Compound: C[n+]1ccc(-c2c3nc(c(-c4cc[n+](C)cc4)c4ccc([nH]4)c(-c4cc[n+](C)cc4)c4nc(c(-c5cc[n+](C)cc5)c5ccc2[nH]5)C=C4)C=C3)cc1 [TMPYP4]
- potentiation of UVA-induced cytotoxicity: not
